Experimental data: ChEMBL document CHEMBL4020783, “Cytotoxic pterosins from Pteris multifida roots against HCT116 human colon cancer cells” (Bioorg Med Chem Lett, 2017)
pIC50: −log10 of the molar value. Activity calls are given as the source filed them. No cut-off for these calls is given here.

Legend:
HCT-116 [1] = assay: Cytotoxicity against human HCT116 cells assessed as reduction in cell viability after 48 hrs by MTT assay; assay type: functional, cell-based; details: HCT-116, 48 h
HCT-116 [2] = assay: Induction of morphological changes in human HCT116 cells assessed as cell rounding and shrinkage; assay type: functional, cell-based
HCT-116 [3] = assay: Induction of apoptosis in human HCT116 cells assessed as early apoptotic cells at 50 uM after 48 hrs by Annexin-V/propidium iodide staining-based flow cytometric analysis (reference value: 4.2%); assay type: functional
HCT-116 [4] = assay: Induction of apoptosis in human HCT116 cells assessed as late apoptotic cells at 10 uM after 48 hrs by Annexin-V/propidium iodide staining-based flow cytometric analysis (reference value: 9.3%); assay type: functional
HCT-116 [5] = assay: Induction of apoptosis in human HCT116 cells assessed as increase in cleaved caspase-9 protein expression after 48 hrs by Western blot analysis; assay type: functional, cell-based
HCT-116 [6] = assay: Induction of apoptosis in human HCT116 cells assessed as early apoptotic cells at 10 uM after 48 hrs by Annexin-V/propidium iodide staining-based flow cytometric analysis (reference value: 4.2%); assay type: functional
HCT-116 [7] = assay: Induction of apoptosis in human HCT116 cells assessed as increase in caspase-9 protein expression after 48 hrs by Western blot analysis; assay type: functional, cell-based
HCT-116 [8] = assay: Induction of apoptosis in human HCT116 cells assessed as late apoptotic cells at 50 uM after 48 hrs by Annexin-V/propidium iodide staining-based flow cytometric analysis (reference value: 9.3%); assay type: functional

`Cc1cc2c(c(C)c1CCO)C(=O)[C@@H](C)[C@@H]2O[C@@H]1O[C@H](COC(=O)/C=C/c2ccc(O)cc2)[C@@H](O)[C@H](O)[C@H]1O` showed a pIC50 (HCT-116 [1]) of 4.76.
For `Cc1cc2c(c(C)c1CCO)C(=O)[C@H](C)[C@@H]2O`, the pIC50 (HCT-116 [1]) was 3.60.
For `O=c1[nH]cc(F)c(=O)[nH]1` [FLUOROURACIL], the pIC50 (HCT-116 [1]) was 4.38.
`Cc1cc2c(c(C)c1CCO)C(=O)[C@@H](C)[C@@H]2O` was tested, and the pIC50 (HCT-116 [1]) was 4.14.
Compound `Cc1cc2c(c(C)c1CCO)C(=O)[C@@H](C)[C@@H]2O[C@@H]1O[C@H](CO)[C@@H](O)[C@H](O)[C@H]1O` has a pIC50 (HCT-116 [1]) of 4.48.
`Cc1cc2c(c(C)c1CCO)C(=O)[C@](C)(CO)[C@@H]2O` was tested, and the pIC50 (HCT-116 [1]) was 3.98.
Work on `Cc1cc2c(c(C)c1CCO)C(=O)[C@H](C)C2` yielded a pIC50 (HCT-116 [1]) of 4.30.
For `Cc1cc2c(c(C)c1CCO)C(=O)C(C)(C)[C@@H]2O`, the pIC50 (HCT-116 [1]) was 3.74.
For `Cc1cc2c(c(C)c1CCO[C@@H]1O[C@H](CO)[C@@H](O)[C@H](O)[C@H]1O)C(=O)[C@H](C)C2`, the pIC50 (HCT-116 [1]) was 4.09.
Work on `CO[C@@H]1c2cc(C)c(CCO)c(C)c2C(=O)[C@H]1C` yielded a pIC50 (HCT-116 [1]) of 4.10.
With `Cc1cc2c(c(CO)c1CCO)C(=O)C(C)(C)[C@@H]2O` the pIC50 (HCT-116 [1]) was 3.92.
In the case of `Cc1cc2c(c(CO)c1CCO[C@@H]1O[C@H](CO)[C@@H](O)[C@H](O)[C@H]1O)C(=O)C(C)(C)[C@@H]2O`, the pIC50 (HCT-116 [1]) was 4.09.
In the case of `Cc1cc2c(c(C)c1CCO)C(=O)[C@@H](C)[C@@H]2O[C@@H]1O[C@H](CO)[C@@H](OC(=O)/C=C/c2ccc(O)c(O)c2)[C@H](O)[C@H]1O`, the Activity (HCT-116 [2]) was “Active”, the Activity (HCT-116 [3]) was 17.1% and the pIC50 (HCT-116 [1]) was 5.10. For the same compound, the Activity (HCT-116 [4]) was 20.9%, the Activity (HCT-116 [5]) was “Dose-dependent effect” and the Activity (HCT-116 [6]) was 6.2%. The Activity (HCT-116 [7]) was “Dose-dependent effect” and the Activity (HCT-116 [8]) was 31.6%.
